The values below come from patent US5436260A, “Angiotensin II receptor antagonists” (Warner-Lambert Company, priority 1994, dated 1995).

Where a name gives a salt, the structure may show the parent alone.

By IC50 is commonly meant the midpoint of a concentration-inhibition curve. Lower therefore signals greater potency.

In this assay the target is T1, AT1 receptor (Rattus norvegicus, UniProt P25095).
T1 construct: rat liver membranes; from tissue; host or cells: rat liver membranes
T1 sequence (P25095 1-359): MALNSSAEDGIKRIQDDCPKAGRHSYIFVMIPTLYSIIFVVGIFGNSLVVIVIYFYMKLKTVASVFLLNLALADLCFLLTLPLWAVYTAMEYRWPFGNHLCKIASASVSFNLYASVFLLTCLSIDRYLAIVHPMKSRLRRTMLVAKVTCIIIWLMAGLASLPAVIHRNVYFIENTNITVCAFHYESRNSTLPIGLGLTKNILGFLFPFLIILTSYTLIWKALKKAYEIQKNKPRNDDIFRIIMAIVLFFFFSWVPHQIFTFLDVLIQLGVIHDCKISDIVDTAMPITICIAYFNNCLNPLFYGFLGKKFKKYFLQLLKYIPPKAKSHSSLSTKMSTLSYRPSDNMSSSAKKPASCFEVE
Description: [^3 H]angiotensin II binding to rat liver membranes (AT1 test). Conditions: inhibition of [^3 H]angiotensin II binding. On the procedure:
The compounds of Formula I or Ia are antagonists of angiotensin II. Dudley, D. T., et al, Molecular Pharmacology 1990;38:370-377 reported the existence of 2 subclasses of angiotensin II binding sites in rabbit adrenal gland and uterus and in the rat liver which differ in their tissue distribution and affinity for various peptide and nonpeptide ligands. Thus, the compounds of Formula I or Ia were tested for their ability to inhibit [^3 H]angiotensin II binding to rat liver membranes (AT1 test) according to the methods described by Dudley, D. T., et al, Molecular Pharmacology 1990;38:370-7. […] It is well established that compounds which antagonize the effect of angiotensin II at the AT1 receptor have value for treatment of hypertension and heart failure.
In turn, `CCCCc1ncc(/C=C2\C(=O)NC(=O)N2CCC(C)C)n1Cc1ccc(C(=O)O)cc1` [Example 2a] registered an IC50 of 9.4 nM. This lies in the single-digit nanomolar range.

`CCCCc1ncc(/C=C2/C(=O)NC(=O)N2CCC(C)C)n1Cc1ccc(C(=O)O)cc1` [Example 2b] came in with an IC50 of 8.8 nM.

Take `CCCCc1ncc(/C=C2\C(=O)NC(=O)N2C)n1Cc1ccc(C(=O)O)cc1` [Example 3a, (E)-4-[[2-Butyl-5-[(2,5-dioxo-3-methyl-4-imidazolidinylidene)methyl]-1H-imidazol-1-yl]methyl]benzoic acid]: the IC50 was found to be 172 nM.

In turn, `CCCCc1ncc(/C=C2/C(=O)NC(=O)N2C)n1Cc1ccc(C(=O)O)cc1` [Example 3b, (Z)-4-[[2-Butyl-5-[(2,5-dioxo-3-methyl-4-imidazolidinylidene)methyl]-1H-imidazol-1-yl]methyl]benzoic acid] displayed an IC50 of 83.8 nM.

For the molecule `CCCCc1ncc(/C=C2/C(=O)NC(=O)N2Cc2ccccc2)n1Cc1ccc(C(=O)O)cc1` [Example 4b], the IC50 stood at 4.17 nM.

For `CCCCc1ncc(/C=C2\C(=O)NC(=O)N2c2ccccc2)n1Cc1ccc(C(=O)O)cc1` [Example 5, (E)-4-[[2-Butyl-5-[(2,5-dioxo-3-phenyl-4-imidazol-imidazolidinylidene)methyl]-1H-imidazole-1-yl]methyl]benzoic acid], the IC50 worked out at 643 nM.

Molecule `CCCCc1ncc(/C=C2\C(=O)NC(=O)N2Cc2cccs2)n1Cc1ccc(C(=O)O)cc1` [Example 6a] had an IC50 of 2.97 nM. This IC50 is about 220-fold lower than that of the molecule before.

`CCCCc1ncc(/C=C2/C(=O)NC(=O)N2Cc2cccs2)n1Cc1ccc(C(=O)O)cc1` [Example 6b] had an IC50 of 1.43 nM.

`CCCCc1ncc(/C=C2\C(=O)NC(=O)N2CCCC)n1Cc1ccc(C(=O)OC)cc1` [Example 15a, (E)-4-[[2-Butyl-5-[(3-butyl-2,5-dioxo-4-imidazolidinylidene)methyl]-1H-imidazole-1-yl]methyl]benzoic acid, methyl ester] came in with an IC50 of 10.9 nM.

Molecule `CCCCc1ncc(/C=C2/C(=O)NC(=O)N2CCCC)n1Cc1ccc(C(=O)OC)cc1` [Example 15b, (Z)-4-[[2-Butyl-5-[(3-butyl-2,5-dioxo-4-imidazolidinylidene)methyl]-1H-imidazole-1-yl]methyl]benzoic acid, methyl ester] yielded an IC50 of 10.3 nM. This IC50 and that of the molecule before are within 1.5-fold of each other.

For the molecule `CCCCc1ncc(/C=C2\C(=O)NC(=O)N2Cc2cccs2)n1Cc1ccc(C(=O)OC)cc1` [Example 16a, (e)-4-[]2-Butyl-5-[[2,5-dioxo-3-((2-thienyl)methyl)-4-imidazolidinylidene[methyl]-1H-imidazole-1-yl]methyl]benzoic acid, methyl ester], the IC50 was found to be 5.45 nM.

Molecule `CCCCc1ncc(/C=C2/C(=O)NC(=O)N2Cc2cccs2)n1Cc1ccc(C(=O)OC)cc1` [Example 16b, (Z)-4-[[2-Butyl-5-[[2,5-dioxo-3-((2-thienyl)methyl)-4-imidazolidinylidene]methyl]-1H-imidazole-1-yl]methyl]benzoic acid, methyl ester] gave an IC50 of 6.92 nM.

`CCCCc1ncc(/C=C2\C(=O)NC(=O)N2CCCCO)n1Cc1ccc(C(=O)OC)cc1` [Example 17a] came in with an IC50 of 98.3 nM.

Molecule `CCCCc1ncc(/C=C2/C(=O)NC(=O)N2CCCCO)n1Cc1ccc(C(=O)OC)cc1` [Example 17b, (Z)-4-[[2-Butyl-5-[[2,5-dioxo-3-(4-hydroxybutyl)-4-imidazolidinylidene]methyl]-1-H-imidazole-1-yl]methyl]benzoic acid, methyl ester] came in with an IC50 of 49.5 nM.

On to `CCCCN1C(=O)N(C)C(=O)/C1=C\c1cnc(CCC)n1Cc1ccc(C(=O)OC)cc1` [Example 18], for which the IC50 stood at 21 nM.

`CCCCc1ncc(/C=C2\C(=O)NC(=O)N2Cc2ccc(Cl)cc2)n1Cc1ccc(C(=O)O)cc1` [Example 20a, E-4-[[2-butyl-5-[[3-[(4-chlorophenyl)methyl]-2,5-dioxo-4-imidazolidinylidene]methyl]-1H-imidazol-1-yl]methyl]benzoic acid]: the IC50 was determined as 3.36 nM.

The molecule `CCCCc1ncc(/C=C2/C(=O)NC(=O)N2Cc2ccc(Cl)cc2)n1Cc1ccc(C(=O)O)cc1` [Example 20b, Z-4-[[2-butyl-5-[[3-[(4-chlorophenyl)methyl]-2,5-dioxo-4-imidazolidinylidene]methyl]-1H-imidazol-1-yl]methyl]benzoic acid] returned an IC50 of 2.47 nM.

Turning to `CCCCc1ncc(/C=C2\C(=O)NC(=O)N2Cc2ccc(OC)c(OC)c2)n1Cc1ccc(C(=O)O)cc1` [Example 21a], the IC50 was 111 nM.

Turning to `CCCCc1ncc(/C=C2/C(=O)NC(=O)N2Cc2ccc(OC)c(OC)c2)n1Cc1ccc(C(=O)O)cc1` [Example 21b], the IC50 turned out to be 89.3 nM.

Regarding `CCCCc1ncc(/C=C2/C(=O)N(CCCC)C(=O)N2CCCC)n1Cc1ccc(C(=O)OC)cc1` [Example 22, Methyl Z-4-[[-2-butyl-5-[(1,3-dibutyl-2,5-dioxo-4-imidazolidinylidene)methyl]-1H -imidazol-1-yl]methyl]benzoate monohydrochloride], the IC50 is 1.67 nM.

As for `CCCCc1ncc(/C=C2/C(=O)N(CCCC)C(=O)N2Cc2cccs2)n1Cc1ccc(C(=O)OC)cc1` [Example 23, Methyl Z-4-[[2-butyl-5-[[1-butyl-2,5-dioxo-3-(2-thienylmethyl)-4-imidazolidinylidene]methyl]-1H-imidazol-1-yl]methyl]benzoate monohydrochloride], the IC50 turned out to be 3.39 nM.

As to `CCCCc1ncc(/C=C2\C(=O)N(CCCC)C(=O)N2Cc2cccs2)n1Cc1ccc(C(=O)OC)cc1` [Example 24, Methyl E-4-[[2-butyl-5-[[1-butyl-2,5-dioxo-3-(2-thienylmethyl)-4-imidazolidinylidene]methyl]-1H-imidazol-1-yl]methyl]benzoate monohydrochloride], the IC50 was found to be 10.3 nM.

Molecule `CCCCc1ncc(/C=C2/C(=O)N(CCCC)C(=O)N2Cc2cccs2)n1Cc1ccc(C(=O)O)cc1` [Example 25] came in with an IC50 of 6.39 nM.

As for `CCCCc1ncc(/C=C2\C(=O)NC(=O)N2Cc2cccs2)n1Cc1ccc(C2(C(=O)O)CCCC2)cc1` [Example 26a, E-1-[4-[[2-butyl-5-[[2,5-dioxo-3-(2-thienylmethyl)-4-imidazolidinylidene]methyl]-1H-imidazol-1-yl]methyl]phenyl]cyclopentanecarboxylic acid], the IC50 was found to be 2.63 nM.

As to `CCCCc1ncc(/C=C2/C(=O)NC(=O)N2Cc2cccs2)n1Cc1ccc(C2(C(=O)O)CCCC2)cc1` [Example 26b, Z-1-[4-[[2-butyl-5-[[2,5-dioxo-3-(2-thienylmethyl)-4-imidazolidinylidene]methyl]-1H-imidazol-1-yl]methyl]phenyl]cyclopentanecarboxylic acid], the IC50 turned out to be 2.22 nM. This IC50 and that of the molecule before are within 1.5-fold of each other.

`CCCCc1ncc(C(O)C2C(=O)NC(=O)N2CCCC)n1Cc1ccc(C(=O)OC)cc1` (stereo not drawn) [Example 29, Methyl 4-[[2-butyl-5-[(3-butyl-2,5-dioxo-4-imidazolidinyl)hydroxymethyl]-1H-imidazol-1-yl]methyl]benzoate] came in with an IC50 of more than 1000 nM.

On to `CCCCc1ncc(/C=C2\NC(=O)N(CCCC)C2=O)n1Cc1ccc(C(=O)OC)cc1` [Example 32a, Methyl Z-4-[[2-butyl-5-[(1-butyl-2,5-dioxo-4-imidazolidinylidene)methyl]-1H-imidazol-1-yl]methyl]benzoate monohydrochloride], for which the IC50 was determined as 178 nM.

For `CCCCc1ncc(/C=C2/NC(=O)N(CCCC)C2=O)n1Cc1ccc(C(=O)OC)cc1` [Example 32b, Methyl E-4-[[2-butyl-5-[(1-butyl-2,5-dioxo-4-imidazolidinylidene)methyl]-1H-imidazol-1-yl]methyl]benzoate], the IC50 came to 1170 nM.

In turn, `CCCCc1ncc(/C=C2/C(=O)N(CCCC)C(=O)N2CCCC)n1Cc1ccc(C(=O)OC)cc1` [Example 33, Methyl Z-4-[[2-butyl-5-[(1,3-dibutyl-2,5-dioxo-4-imidazolidinylidene)methyl]-1 H-imidazol-1-yl]methyl]benzoate monohydrochloride] yielded an IC50 of 8.49 nM.

Molecule `CCCCCCN1C(=O)N(CCCC)C(=O)/C1=C/c1cnc(CCCC)n1Cc1ccc(C(=O)OC)cc1` [Example 35, Methyl Z-4-[[2-butyl-5-[(1-butyl-3-hexyl-2,5-dioxo-4-imidazolidinylidene)methyl]-1H-imidazol-1-yl]methyl]benzoate monohydrochloride] returned an IC50 of 40.2 nM.

As to `CCCCc1ncc(/C=C2/C(=O)N(CCCC)C(=O)N2Cc2ccccc2)n1Cc1ccc(C(=O)OC)cc1` [Example 36, Methyl Z-4-[[2-butyl-5-[[1-butyl-2,5-dioxo-3-(phenylmethyl)-4-imidazolidinylidene]methyl]-1H-imidazol-1-yl]methyl]benzoate monohydrochloride], the IC50 was 12.4 nM.

In turn, `CCCCc1ncc(/C=C2/C(=O)N(CCCC)C(=O)N2Cc2ccc(C(=O)OC)cc2)n1Cc1ccc(C(=O)OC)cc1` [Example 37, Methyl Z-4-[[2-butyl-5-[[1-butyl-3-[[4-(methoxycarbonyl)phenyl]methyl]-2,5-dioxo-4-imidazolidinylidene]methyl]-1H-imidazol-1-yl]methyl]benzoate monohydrochloride] came in with an IC50 of 14.3 nM.

`CCCCc1ncc(/C=C2/C(=O)N(CCCC)C(=O)N2Cc2ccc([N+](=O)[O-])cc2)n1Cc1ccc(C(=O)OC)cc1` [Example 38, mono hydrochloride] returned an IC50 of 16.9 nM.
